In patent US10179771B2 (GALAPAGOS NV, priority 2014, dated 2019):
pIC50: −log10 of the molar value.

Legend:
[1] = molecular target: T1, Recombinant human JAK2 catalytic domain (Homo sapiens, UniProt O60674); assay: JAK2 inhibition assay (polyGT substrate / Ulight-JAK1 peptide assay); format: biochemical; details: Comparative Compounds (Table VIII)
T1 construct: Recombinant human JAK2 catalytic domain (amino acids 808-1132; catalog number PV4210); GST; purchased Invitrogen PV4210
Procedure: Recombinant human JAK2 catalytic domain (amino acids 808-1132; catalog number PV4210) was purchased from Invitrogen. 0.025 mU of JAK2 is incubated with […] polyGT substrate (Sigma catalog number P0275) in kinase reaction buffer (5 mM MOPS pH 7.5, 9 mM MgAc, 0.3 mM EDTA, 0.06% Brij and 0.6 mM DTT, 1 μM non-radioactive ATP, 0.25 μCi ^33P-gamma-ATP (GE Healthcare, catalog number AH9968) final concentrations) with or without 5 μL containing test compound or vehicle (DMSO, 1% final concentration), in a total volume of 25 μL, in a polypropylene 96-well plate (Greiner, V-bottom). After 90 min at 30° C., reactions are stopped by adding of 25 μL/well of 150 mM phosphoric acid. All of the terminated kinase reaction is transferred to prewashed (75 mM phosphoric acid) 96 well filter plates (Perkin Elmer catalog number 6005177) using a cell harvester (Perkin Elmer). Plates are washed 6 times with 300 μL per well of a 75 mM phosphoric acid solution and the bottom of the plates is sealed. 40 μL/well of Microscint-20 is added, the top of the plates is sealed and readout is performed using the Topcount (Perkin Elmer). Kinase activity is calculated by subtracting counts per min (cpm) obtained in the presence of a positive control inhibitor (10 μM staurosporine) from cpm obtained in the presence of vehicle. The ability of a test compound to inhibit this activity is determined as:
(§1) [formula] • RFU test compound=RFU determined for sample with test compound present • RFU control=RFU determined for sample with positive control inhibitor • RFU vehicle=RFU determined in the presence of vehicle
(§2) Dose dilution series are prepared for the compounds enabling the testing of dose-response effects in the JAK2 assay and the calculation of the IC50 for each compound. Each compound is routinely tested at concentration of 20 μM followed by a 1/3 serial dilution, 8 points (20 μM-6.67 μM-2.22 μM-740 nM-247 nM-82 nM-27 nM-9 nM) in a final concentration of 1% DMSO. When potency of compound series increased, more dilutions are prepared and/or the top concentration is lowered (e.g. 5 μM, 1 μM).
Recombinant human JAK2 (catalytic domain, amino acids 866-1154; catalog number PV4210) was purchased from Invitrogen. 0.0125 mU of JAK2 was incubated with 25 nM Ulight-JAK1 (tyr1023) peptide (Perkin Elmer catalog number TRF0121) in kinase reaction buffer (25 mM HEPES pH7.0, 0.01% Triton X-100, 7.5 mM MgCl2, 2 mM DTT, 7.5 μM ATP) with or without 4 μL containing test compound or vehicle (DMSO, 1% final concentration), in a total volume of 20 μL, in a white 384 Opti plate (Perkin Elmer, catalog number 6007290). After 60 min at room temperature, reactions were stopped by adding 20 μL/well of detection mixture (1× detection buffer (Perkin Elmer, catalog number CR97-100C), 0.5 nM Europium-anti-phosphotyrosine (PT66) (Perkin Elmer, catalog number AD0068), 10 mM EDTA). Readout is performed using the Envision with excitation at 320 nm and measuring emission at 615 nm (Perkin Elmer). Kinase activity was calculated by subtracting relative fluorescence units (RFU) obtained in the presence of a positive control inhibitor (10 μM staurosporine) from RFU obtained in the presence of vehicle. The ability of a test compound to inhibit this activity was determined as: Percentage inhibition=((RFU determined for sample with test compound present−RFU determined for sample with positive control inhibitor) divided by (RFU determined in the presence of vehicle−RFU determined for sample with positive control inhibitor))*100.
(§3) Dose dilution series are prepared for compound enabling the testing of dose-response effects in the JAK2 assay and the calculation of the IC50 for the compound. Each compound is routinely tested at concentration of 20 μM followed by a 1/5 serial dilution, 10 points in a final concentration of 1% DMSO. When potency of compound series increases, more dilutions are prepared and/or the top concentration are lowered (e.g. 5 μM, 1 μM). […]

[2] = molecular target: T2, Recombinant human JAK1 catalytic domain (Homo sapiens, UniProt P23458); assay: JAK1 inhibition assay (polyGT substrate / Ulight-JAK1 peptide assay); format: biochemical; details: Comparative Compounds (Table VI)
T2 construct: Recombinant human JAK1 (catalytic domain, amino acids 866-1154; catalog number PV4774); purchased Invitrogen PV4774
Procedure: Recombinant human JAK1 catalytic domain (amino acids 850-1154; catalog number 08-144) was purchased from Carna Biosciences. 10 ng of JAK1 is incubated with 12.5 μg polyGT substrate (Sigma catalog number P0275) in kinase reaction buffer (15 mM Tris-HCl pH 7.5, 1 mM DTT, 0.01% Tween-20, 10 mM MgCl2, 2 μM non-radioactive ATP, 0.25 ρCi ^33P-gamma-ATP (GE Healthcare, catalog number AH9968) final concentrations) with or without 5 μL containing test compound or vehicle (DMSO, 1% final concentration), in a total volume of 25 μL, in a polypropylene 96-well plate (Greiner, V-bottom). After 45 min at 30° C., reactions are stopped by adding of 25 μL/well of 150 mM phosphoric acid. All of the terminated kinase reaction is transferred to prewashed (75 mM phosphoric acid) 96 well filter plates (Perkin Elmer catalog number 6005177) using a cell harvester (Perkin Elmer). Plates are washed 6 times with 300 μL per well of a 75 mM phosphoric acid solution and the bottom of the plates is sealed. 40 μL/well of Microscint-20 is added, the top of the plates is sealed and readout is performed using the Topcount (Perkin Elmer). Kinase activity is calculated by subtracting counts per min (cpm) obtained in the presence of a positive control inhibitor (10 μM staurosporine) from cpm obtained in the presence of vehicle. The ability of a test compound to inhibit this activity is determined as:
as §1
as §2, with “the JAK1” for “the JAK2”, “concentration was” for “concentration is”
Recombinant human JAK1 (catalytic domain, amino acids 866-1154; catalog number PV4774) was purchased from Invitrogen. 1 ng of JAK1 was incubated with 20 nM Ulight-JAK1 (tyr1023) peptide (Perkin Elmer catalog number TRF0121) in kinase reaction buffer (25 mM MOPS pH6.8, 0.01% Brij-35, 5 mM MgCl2, 2 mM DTT, 7 μM ATP) with or without 4 μL containing test compound or vehicle (DMSO, 1% final concentration), in a total volume of 20 μL, in a white 384 Opti plate (Perkin Elmer, catalog number 6007290). After 60 min at room temperature, reactions were stopped by adding 20 μL/well of detection mixture (1× detection buffer (Perkin Elmer, catalog number CR97-100C), 0.5 nM Europium-anti-phosphotyrosine (PT66) (Perkin Elmer, catalog number AD0068), 10 mM EDTA). Readout is performed using the Envision with excitation at 320 nm and measuring emission at 615 nm (Perkin Elmer). Kinase activity was calculated by subtracting relative fluorescence units (RFU) obtained in the presence of a positive control inhibitor (10 μM staurosporine) from RFU obtained in the presence of vehicle. The ability of a test compound to inhibit this activity was determined as: Percentage inhibition=((RFU determined for sample with test compound present−RFU determined for sample with positive control inhibitor) divided by (RFU determined in the presence of vehicle−RFU determined for sample with positive control inhibitor))*100.
as §3, with “series were” for “series are”, “for the compounds” for “for compound”, “the JAK1” for “the JAK2”

T2 sequence (P23458 866-1154): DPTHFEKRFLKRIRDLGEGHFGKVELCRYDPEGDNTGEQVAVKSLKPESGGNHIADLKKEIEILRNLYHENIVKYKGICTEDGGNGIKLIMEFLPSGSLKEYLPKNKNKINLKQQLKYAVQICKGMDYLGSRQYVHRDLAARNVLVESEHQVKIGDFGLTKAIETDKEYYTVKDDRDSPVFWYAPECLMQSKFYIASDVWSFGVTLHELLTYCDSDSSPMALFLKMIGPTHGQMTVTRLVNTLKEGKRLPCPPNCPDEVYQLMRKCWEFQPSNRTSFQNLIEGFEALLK
T1 sequence (O60674 808-1132): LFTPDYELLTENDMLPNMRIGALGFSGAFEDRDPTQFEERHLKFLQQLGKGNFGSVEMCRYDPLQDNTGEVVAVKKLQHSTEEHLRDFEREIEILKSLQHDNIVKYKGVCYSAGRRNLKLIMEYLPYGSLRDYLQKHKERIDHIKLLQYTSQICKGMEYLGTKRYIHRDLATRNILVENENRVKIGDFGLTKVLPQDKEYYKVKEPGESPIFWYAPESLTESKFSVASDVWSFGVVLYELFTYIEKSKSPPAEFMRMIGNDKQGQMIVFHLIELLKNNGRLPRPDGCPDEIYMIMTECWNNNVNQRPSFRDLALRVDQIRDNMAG

| SMILES | pIC50 [1] | pIC50 [2] |
| --- | --- | --- |
| Cn1cnc2ccc(Nc3ccc(CC#N)cc3)cc21 [A, 2-[4-[(3-methylbenzimidazol-5-yl)amino]phenyl]acetonitrile, reference compound] | < 6.30 | < 6.30 |
| Cn1cnc2ccc(Nc3ccc4c(c3)OCCO4)cc21 [B, reference compound] | < 6.30 | < 6.30 |
